Laboratory results from ChEMBL document CHEMBL3272189, “Orally active esters of cephalosporin antibiotics. Synthesis and biological properties of acyloxymethyl esters of 7-(D-2-amino-2-phenylacetamido)-3-[5-methyl-(1,3,4-thiadiazol-2-yl)thiomethyl]-3-cephem-4-carboxylic acid” (J Med Chem, 1977).
≈ marks a conversion by molar mass, not a printed value.

Key:
[1] = Half life in 0.1 M sodium phosphate buffer at 50 ug/ml at pH 4.5; type: physicochemical
[2] = Half life in 0.1 M sodium phosphate buffer at 50 ug/ml at pH 6.5; type: physicochemical
[3] = Half life in 0.1 M sodium phosphate buffer at 50 ug/ml at pH 7.5; type: physicochemical
[4] = Drug absorption in Lai:COX (Standard)BR mouse assessed as compound remaining in gastrointestinal tract at 17 mg/kg, po after 20 mins; type: ADME, organism-based; set-up: dose 17 mg/kg, route oral; conditions: read-out: Stability
[5] = Drug absorption in Lai:COX (Standard)BR mouse assessed as compound remaining in gastrointestinal tract at 17 mg/kg, po after 40 mins; type: ADME, organism-based; set-up: dose 17 mg/kg, route oral; conditions: read-out: Stability
[6] = Drug excretion in Lai:COX (Standard)BR mouse urine at 17 mg/kg, po after 5 mins; type: ADME, organism-based; set-up: dose 17 mg/kg, route oral; conditions: read-out: Drug excretion
[7] = Drug excretion in Lai:COX (Standard)BR mouse urine at 17 mg/kg, po after 20 mins; type: ADME, organism-based; set-up: dose 17 mg/kg, route oral; conditions: read-out: Drug excretion
[8] = Drug excretion in Lai:COX (Standard)BR mouse urine at 17 mg/kg, po after 40 mins; type: ADME, organism-based; set-up: dose 17 mg/kg, route oral; conditions: read-out: Drug excretion
[9] = Drug excretion in Lai:COX (Standard)BR mouse urine at 17 mg/kg, po after 60 mins; type: ADME, organism-based; set-up: dose 17 mg/kg, route oral; conditions: read-out: Drug excretion
[10] = Drug excretion in Lai:COX (Standard)BR mouse urine at 17 mg/kg, po after 80 mins; type: ADME, organism-based; set-up: dose 17 mg/kg, route oral; conditions: read-out: Drug excretion
[11] = Drug excretion in Lai:COX (Standard)BR mouse urine at 17 mg/kg, po after 100 mins; type: ADME, organism-based; set-up: dose 17 mg/kg, route oral; conditions: read-out: Drug excretion
[12] = Drug excretion in Lai:COX (Standard)BR mouse urine at 17 mg/kg, po after 120 mins; type: ADME, organism-based; set-up: dose 17 mg/kg, route oral; conditions: read-out: Drug excretion
Staphylococcus aureus = experiment: Antibacterial activity against penicillin-resistant, coagulase-positive Staphylococcus aureus assessed as growth inhibition by gradient-plate assay; type: functional
Shigella sp. = experiment: Antibacterial activity against Shigella sp. assessed as growth inhibition by gradient-plate assay; type: functional
Escherichia coli = experiment: Antibacterial activity against Escherichia coli assessed as growth inhibition by gradient-plate assay; type: functional
Klebsiella pneumoniae = experiment: Antibacterial activity against Klebsiella pneumoniae assessed as growth inhibition by gradient-plate assay; type: functional
Klebsiella aerogenes = experiment: Antibacterial activity against Enterobacter aerogenes assessed as growth inhibition by gradient-plate assay; type: functional
[13] = Antibacterial activity against Salmonella heidelberg assessed as growth inhibition by gradient-plate assay; type: functional, Salmonella enterica subsp. enterica serovar Heidelberg; conditions: Salmonella enterica
Serratia marcescens = experiment: Antibacterial activity against Serratia marcescens assessed as growth inhibition by gradient-plate assay; type: functional
[14] = Drug excretion in Lai:COX (Standard)BR mouse urine at 17 mg/kg, sc after 5 mins; type: ADME, organism-based; set-up: dose 17 mg/kg, route subcutaneous; conditions: read-out: Drug excretion
[15] = Drug excretion in Lai:COX (Standard)BR mouse urine at 17 mg/kg, sc after 20 mins; type: ADME, organism-based; set-up: dose 17 mg/kg, route subcutaneous; conditions: read-out: Drug excretion
[16] = Drug excretion in Lai:COX (Standard)BR mouse urine at 17 mg/kg, sc after 40 mins; type: ADME, organism-based; set-up: dose 17 mg/kg, route subcutaneous; conditions: read-out: Drug excretion
[17] = Drug excretion in Lai:COX (Standard)BR mouse urine at 17 mg/kg, sc after 60 mins; type: ADME, organism-based; set-up: dose 17 mg/kg, route subcutaneous; conditions: read-out: Drug excretion
[18] = Drug excretion in Lai:COX (Standard)BR mouse urine at 17 mg/kg, sc after 80 mins; type: ADME, organism-based; set-up: dose 17 mg/kg, route subcutaneous; conditions: read-out: Drug excretion
[19] = Drug excretion in Lai:COX (Standard)BR mouse urine at 17 mg/kg, sc after 100 mins; type: ADME, organism-based; set-up: dose 17 mg/kg, route subcutaneous; conditions: read-out: Drug excretion
[20] = Drug excretion in Lai:COX (Standard)BR mouse urine at 17 mg/kg, sc after 120 mins; type: ADME, organism-based; set-up: dose 17 mg/kg, route subcutaneous; conditions: read-out: Drug excretion
Blood = experiment: Drug uptake in Lai:COX (Standard)BR mouse blood at 17 mg/kg, po; type: ADME, organism-based; set-up: dose 17 mg/kg, route oral; conditions: in vivo

For `Cc1nnc(SCC2=C(C(=O)OCOC(=O)C(C)(C)C)N3C(=O)[C@@H](NC(=O)[C@H](N)c4ccccc4)[C@H]3SC2)s1.Cl`, the half-life at 50 ug/ml [1] was 32 h, the half-life at 50 ug/ml [2] was 45 min and the half-life at 50 ug/ml [3] was 25 min. It also gave a remaining at 20 min [4] of 40.5%, a remaining at 40 min [5] of 25% and a dose excreted at 5 min [6] of 3.6%. It also gave a dose excreted at 20 min [7] of 20.8%, a dose excreted at 40 min [8] of 38.9% and a dose excreted at 1 h [9] of 43.2%. It also gave a dose excreted at 80 min [10] of 48.2%, a dose excreted at 100 min [11] of 41.8% and a dose excreted at 2 h [12] of 41.5%.

Work on `CC1=C(C(=O)O)N2C(=O)[C@@H](NC(=O)[C@H](N)c3ccccc3)[C@H]2SC1` [CEPHALEXIN ANHYDROUS] yielded an MIC (Staphylococcus aureus) of 4.5 µg/mL (≈ 13 µM), an MIC (Shigella sp.) of 9 µg/mL (≈ 25.9 µM) and an MIC (Escherichia coli) of 8.5 µg/mL (≈ 24.5 µM). For the same compound, the MIC (Klebsiella pneumoniae) was 7 µg/mL (≈ 20.1 µM), the MIC (Klebsiella aerogenes) was 6.8 µg/mL (≈ 19.6 µM) and the MIC [13] was 5.5 µg/mL (≈ 15.8 µM). The MIC (Serratia marcescens) was 140 µg/mL (≈ 403 µM).

For `Cc1nnc(SCC2=C(C(=O)OC3OC(=O)c4ccccc43)N3C(=O)[C@@H](NC(=O)[C@H](N)c4ccccc4)[C@H]3SC2)s1.Cl` (stereo not given in full), the half-life at 50 ug/ml [2] was 25 min, the half-life at 50 ug/ml [3] was 15 min and the remaining at 20 min [4] was 59%. For the same compound, the remaining at 40 min [5] was 35%, the dose excreted at 20 min [7] was 8.3% and the dose excreted at 40 min [8] was 22.1%. It also gave a dose excreted at 1 h [9] of 35%, a dose excreted at 80 min [10] of 30.5% and a dose excreted at 100 min [11] of 34%.

In the case of `Cc1nnc(SCC2=C(C(=O)O)N3C(=O)[C@@H](NC(=O)[C@H](N)c4ccccc4)[C@H]3SC2)s1`, the MIC (Staphylococcus aureus) is reported as 0.7 µg/mL (≈ 1.47 µM), the half-life at 50 ug/ml [1] is reported as 47 h and the half-life at 50 ug/ml [2] is reported as 76 min. The half-life at 50 ug/ml [3] was 54 min, the MIC (Shigella sp.) was 1 µg/mL (≈ 2.09 µM) and the MIC (Escherichia coli) was 1 µg/mL (≈ 2.09 µM). It also gave an MIC (Klebsiella pneumoniae) of 0.6 µg/mL (≈ 1.26 µM), an MIC (Klebsiella aerogenes) of 0.8 µg/mL (≈ 1.68 µM) and an MIC [13] of 1 µg/mL (≈ 2.09 µM). It also gave an MIC (Serratia marcescens) of 26.5 µg/mL (≈ 55.5 µM), a remaining at 20 min [4] of 81.2% and a remaining at 40 min [5] of 67.5%. It also gave a dose excreted at 5 min [14] of 2.8%, a dose excreted at 20 min [15] of 25% and a dose excreted at 40 min [16] of 46.5%. The dose excreted at 1 h [17] was 50.7%, the dose excreted at 80 min [18] was 56.7% and the dose excreted at 100 min [19] was 54.1%. For the same compound, the dose excreted at 2 h [20] was 54.1%, the dose excreted at 20 min [7] was 2.8% and the dose excreted at 40 min [8] was 8.4%. It also gave a dose excreted at 1 h [9] of 13.2%, a dose excreted at 80 min [10] of 17.5% and a dose excreted at 100 min [11] of 22.4%. For the same compound, the dose excreted at 2 h [12] was 14.1% and the Drug uptake (Blood) was “Active”.

Work on `CC(=O)OCOC(=O)C1=C(CSc2nnc(C)s2)CS[C@@H]2[C@H](NC(=O)[C@H](N)c3ccccc3)C(=O)N12.Cl` yielded a half-life at 50 ug/ml [1] of 27 h, a half-life at 50 ug/ml [2] of 60 min and a half-life at 50 ug/ml [3] of 25 min. For the same compound, the remaining at 20 min [4] was 39.1%, the remaining at 40 min [5] was 31.5% and the dose excreted at 20 min [7] was 20.4%. For the same compound, the dose excreted at 40 min [8] was 32.5%, the dose excreted at 1 h [9] was 33.1% and the dose excreted at 80 min [10] was 36.1%. It also gave a dose excreted at 100 min [11] of 38.3% and a dose excreted at 2 h [12] of 36.8%.
